Reference: PubChem BioAssay AID330 (DTP/NCI, 2004)
Where “and” joins values, the source holds several entries; their conditions need not be identical. Equal entries are not always repeated. Inconclusive results and toxic doses are left out.

System: P388 leukemia ip, CD2F1 mice, survival T/C
Assay: NCI In Vivo Anticancer Drug Screen. Data for tumor model P388 Leukemia (intraperitoneal) in CD2F1 (CDF1) mice
Settings: endpoint: median survival time, higher = longer survival
Method in brief: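 Mice carrying the transplanted tumor received test compound or vehicle. Survival was recorded in each group, and the value is the treated-group measurement divided by that of the vehicle-treated control group.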

[1] = dose: 12.5 mg/kg/injection, schedule: Q01DX005 (ip), vehicle: Klucel (hydroxypropylcellulose) (HPC)
[2] = dose: 25.0 mg/kg/injection, schedule: Q01DX005 (ip), vehicle: Klucel (hydroxypropylcellulose) (HPC)
[3] = dose: 50.0 mg/kg/injection, schedule: Q01DX005 (ip), vehicle: Klucel (hydroxypropylcellulose) (HPC)
[4] = dose: 100.0 mg/kg/injection, schedule: Q01DX005 (ip), vehicle: Klucel (hydroxypropylcellulose) (HPC)
[5] = dose: 200.0 mg/kg/injection, schedule: Q01DX005 (ip), vehicle: Klucel (hydroxypropylcellulose) (HPC)
[6] = dose: 60.0 mg/kg/injection, schedule: Q01DX005 (ip), vehicle: saline with Tween-80
[7] = dose: 120.0 mg/kg/injection, schedule: Q01DX005 (ip), vehicle: saline with Tween-80
[8] = dose: 240.0 mg/kg/injection, schedule: Q01DX005 (ip), vehicle: saline with Tween-80

Question: Which results are given for `Oc1ccccc1-c1nc(-c2ccccc2)c(-c2ccccc2)[nH]1`?
Answer: T/C (dose: 100.0 mg/kg/injection, schedule: Q04DX003 (ip), vehicle: Klucel (hydroxypropylcellulose) (HPC)): 106 % of control; T/C (dose: 200.0 mg/kg/injection, schedule: Q04DX003 (ip), vehicle: Klucel (hydroxypropylcellulose) (HPC)): 101 % of control; T/C (dose: 400.0 mg/kg/injection, schedule: Q04DX003 (ip), vehicle: Klucel (hydroxypropylcellulose) (HPC)): 101 % of control

Question: For `CN[C@H]1CCc2cc(OC)c(OC)c(OC)c2-c2ccc(OC)c(=O)cc21`, which T/C (dose: 0.5 mg/kg/injection, schedule: Q01DX009 (ip), vehicle: saline) is on record?
Answer: 109 % of control

Question: What about the T/C (dose: 0.5 mg/kg/injection, schedule: Q01DX009 (ip), vehicle: water) of the same compound?
Answer: 109 % of control

Question: And the T/C (dose: 0.63 mg/kg/injection, schedule: Q01DX009 (ip), vehicle: water)?
Answer: 112 % of control

Question: And the T/C (dose: 1.0 mg/kg/injection, schedule: Q01DX009 (ip), vehicle: saline with Tween-80)?
Answer: 117 % of control

Question: And the T/C (dose: 1.0 mg/kg/injection, schedule: Q01DX009 (ip), vehicle: saline)?
Answer: 104 % of control and 124 % of control

Question: And the T/C (dose: 2.0 mg/kg/injection, schedule: Q01DX009 (ip), vehicle: saline with Tween-80)?
Answer: 98 % of control

Question: What about the T/C (dose: 2.0 mg/kg/injection, schedule: Q01DX009 (ip), vehicle: saline) of the same compound?
Answer: 104 % of control and 121 % of control

Question: What about the T/C (dose: 4.0 mg/kg/injection, schedule: Q01DX009 (ip), vehicle: saline with Tween-80) of the same compound?
Answer: 95 % of control

Question: What about the T/C (dose: 4.0 mg/kg/injection, schedule: Q01DX009 (ip), vehicle: saline) of the same compound?
Answer: 104 % of control

Question: And the T/C (dose: 4.0 mg/kg/injection, schedule: Q04DX003 (ip), vehicle: saline with Tween-80)?
Answer: 103 % of control

Question: What about the T/C (dose: 5.0 mg/kg/injection, schedule: Q01DX009 (ip), vehicle: water) of the same compound?
Answer: 117 % of control

Question: And the T/C (dose: 8.0 mg/kg/injection, schedule: Q01DX009 (ip), vehicle: saline)?
Answer: 121 % of control

Question: What about the T/C (dose: 8.0 mg/kg/injection, schedule: Q01DX009 (ip), vehicle: water) of the same compound?
Answer: 152 % of control

Question: What about the T/C (dose: 8.0 mg/kg/injection, schedule: Q04DX003 (ip), vehicle: saline with Tween-80) of the same compound?
Answer: 101 % of control

Question: What about the T/C (dose: 10.0 mg/kg/injection, schedule: Q01DX009 (ip), vehicle: water) of the same compound?
Answer: 155 % of control

Question: And the T/C (dose: 16.0 mg/kg/injection, schedule: Q04DX003 (ip), vehicle: saline with Tween-80)?
Answer: 102 % of control

Question: And the T/C (dose: 32.0 mg/kg/injection, schedule: Q04DX003 (ip), vehicle: saline with Tween-80)?
Answer: 102 % of control

Question: How did the T/C (dose: 6.25 mg/kg/injection, schedule: Q01DX009 (ip), vehicle: saline with Tween-80) turn out when `CC(=O)C(=CN(C)c1ccc([N+](=O)[O-])cc1)C(C)=O` was run?
Answer: 111 % of control

Question: And the T/C (dose: 12.5 mg/kg/injection, schedule: Q01DX009 (ip), vehicle: saline with Tween-80)?
Answer: 92 % of control

Question: And the T/C (dose: 25.0 mg/kg/injection, schedule: Q01DX009 (ip), vehicle: saline with Tween-80)?
Answer: 100 % of control

Question: What about the T/C (dose: 100.0 mg/kg/injection, schedule: Q01DX009 (ip), vehicle: saline) of the same compound?
Answer: 91 % of control

Question: And the T/C (dose: 200.0 mg/kg/injection, schedule: Q01DX009 (ip), vehicle: saline)?
Answer: 91 % of control

Question: `O=C1c2ccccc2C(=O)c2c(NC(=O)C(F)(F)F)cccc21` was tested. Which T/C [1] did it give?
Answer: 96 % of control

Question: And the T/C [2]?
Answer: 93 % of control

Question: And the T/C [3]?
Answer: 87 % of control and 89 % of control

Question: With `Cc1cc(C=C2C(=O)OC(C)(C)OC2=O)cc(C)c1O` as the compound, how does the T/C [3] read?
Answer: 93 % of control

Question: And the T/C [4]?
Answer: 90 % of control

Question: What about the T/C [5] of the same compound?
Answer: 103 % of control

Question: Which results are given for `Cc1ccc2c3c(c(=O)oc2c1)[C@H](C)C[C@@](C)(CO)O3`?
Answer: T/C [6]: 113 % of control; T/C [7]: 107 % of control; T/C [8]: 100 % of control

Question: How did the T/C [3] turn out when `CN(C)CCOc1cnc2ccc(Cl)cc2n1` was run?
Answer: 88 % of control

Question: What about the T/C [4] of the same compound?
Answer: 88 % of control

Question: With `CCN1CC2(COC)CCC(OC)C34C5CC6C(OC)CC(O)(C5C6O)C(O)(C(OC)C23)C14` (centres undefined) as the compound, how does the T/C (dose: 3.75 mg/kg/injection, schedule: Q01DX005 (ip), vehicle: saline + alcohol) read?
Answer: 96 % of control

Question: What about the T/C (dose: 7.5 mg/kg/injection, schedule: Q01DX005 (ip), vehicle: saline + alcohol) of the same compound?
Answer: 100 % of control

Question: What about the T/C (dose: 15.0 mg/kg/injection, schedule: Q01DX005 (ip), vehicle: saline + alcohol) of the same compound?
Answer: 102 % of control

Question: And the T/C (dose: 30.0 mg/kg/injection, schedule: Q01DX005 (ip), vehicle: saline + alcohol)?
Answer: 92 % of control

Question: And the T/C (dose: 60.0 mg/kg/injection, schedule: Q01DX005 (ip), vehicle: saline + alcohol)?
Answer: 99 % of control

Question: Which results are given for `Nc1nsc(Cl)n1`?
Answer: T/C (dose: 25.0 mg/kg/injection, schedule: Q01DX001 (ip), vehicle: saline with Tween-80): 97 % of control; T/C (dose: 50.0 mg/kg/injection, schedule: Q01DX001 (ip), vehicle: saline with Tween-80): 106 % of control; T/C (dose: 100.0 mg/kg/injection, schedule: Q01DX001 (ip), vehicle: saline with Tween-80): 99 % of control

Question: Which results are given for `C=C1C(=O)O[C@@H]2/C=C(/C)[C@@]3(O)C=C[C@](C)(C[C@@H](OC(=O)/C(=C\C)COC(C)=O)[C@@H]12)O3`?
Answer: T/C (dose: 2.5 mg/kg/injection, schedule: Q01DX009 (ip), vehicle: carboxymethylcellulose (CMC)): 106 % of control; T/C (dose: 5.0 mg/kg/injection, schedule: Q01DX009 (ip), vehicle: carboxymethylcellulose (CMC)): 120 % of control; T/C (dose: 10.0 mg/kg/injection, schedule: Q01DX009 (ip), vehicle: carboxymethylcellulose (CMC)): 101 % of control; T/C (dose: 20.0 mg/kg/injection, schedule: Q01DX009 (ip), vehicle: carboxymethylcellulose (CMC)): 120 % of control

Question: `Cc1ccc([B-]23OCC[N+]2(CNC(=O)C2=C(O)C4(O)C(=O)C5=C(O)c6c(O)cccc6C(C)(O)C5CC4C(N(C)C)C2=O)CCO3)cc1` (centres undefined) was tested. Which T/C [3] did it give?
Answer: 108 % of control

Question: And the T/C [4]?
Answer: 108 % of control

Question: And the T/C [5]?
Answer: 113 % of control

Question: For `Cn1c2ccccc2c2nnc(N/N=C/c3ccccn3)nc21`, which T/C (dose: 100.0 mg/kg/injection, schedule: Q04DX002 (ip), vehicle: saline with Tween-80) is on record?
Answer: 98 % of control and 111 % of control and 113 % of control

Question: And the T/C (dose: 200.0 mg/kg/injection, schedule: Q04DX002 (ip), vehicle: saline with Tween-80)?
Answer: 106 % of control and 113 % of control and 114 % of control

Question: And the T/C (dose: 400.0 mg/kg/injection, schedule: Q04DX002 (ip), vehicle: saline with Tween-80)?
Answer: 106 % of control and 113 % of control

Question: And the T/C (dose: 800.0 mg/kg/injection, schedule: Q04DX002 (ip), vehicle: saline with Tween-80)?
Answer: 104 % of control and 114 % of control

Question: Which T/C (dose: 50.0 mg/kg/injection, schedule: Q01DX005 (ip), vehicle: saline with Tween-80) does the source give for `CC(CCC(=O)O)(c1ccc(OC(=O)Nc2cccc([N+](=O)[O-])c2)cc1)c1ccc(OC(=O)Nc2cccc([N+](=O)[O-])c2)cc1` here?
Answer: 98 % of control

Question: And the T/C (dose: 100.0 mg/kg/injection, schedule: Q01DX005 (ip), vehicle: saline with Tween-80)?
Answer: 91 % of control

Question: Which results are given for `O=CC1CO1` (centres undefined)?
Answer: T/C (dose: 12.5 mg/kg/injection, schedule: Q01DX009 (ip), vehicle: saline): 109 % of control; T/C (dose: 12.5 mg/kg/injection, schedule: Q04DX003 (ip), vehicle: saline): 112 % of control; T/C (dose: 25.0 mg/kg/injection, schedule: Q01DX009 (ip), vehicle: saline): 118 % of control; T/C (dose: 25.0 mg/kg/injection, schedule: Q04DX003 (ip), vehicle: saline): 104 % of control; T/C (dose: 50.0 mg/kg/injection, schedule: Q04DX003 (ip), vehicle: saline): 116 % of control

Question: How did the T/C [6] turn out when `COc1ccc(C(CNC(=O)Cc2ccc(Oc3cc(CC(=O)NCC(OC)c4ccc(OC)c(OC)c4)ccc3OC)cc2)OC)cc1OC` (centres undefined) was run?
Answer: 94 % of control

Question: What about the T/C [7] of the same compound?
Answer: 86 % of control

Question: And the T/C [8]?
Answer: 92 % of control

Question: With `CCn1c(COc2c(I)cc(I)c3cccnc23)n[nH]c1=S` as the compound, how does the T/C (dose: 6.25 mg/kg/injection, schedule: Q01DX005 (ip), vehicle: Klucel (hydroxypropylcellulose) (HPC)) read?
Answer: 96 % of control

Question: And the T/C [1]?
Answer: 98 % of control

Question: What about the T/C [2] of the same compound?
Answer: 102 % of control

Question: What about the T/C [3] of the same compound?
Answer: 98 % of control

Question: Which results are given for `[Cl][Sn]([Cl])([c]1ccccc1)[c]1ccccc1.c1ccc(-c2nnc(-c3ccccn3)nc2-c2ccccc2)cc1`?
Answer: T/C (dose: 0.79 mg/kg/injection, schedule: Q01DX005 (ip), vehicle: Klucel (hydroxypropylcellulose) (HPC)): 101 % of control and 120 % of control; T/C (dose: 1.56 mg/kg/injection, schedule: Q01DX005 (ip), vehicle: Klucel (hydroxypropylcellulose) (HPC)): 120 % of control; T/C (dose: 3.12 mg/kg/injection, schedule: Q01DX005 (ip), vehicle: Klucel (hydroxypropylcellulose) (HPC)): 123 % of control

Question: What does the source list for `CCOC(=O)C1=C(C(=O)c2ccc(C)cc2)C(c2ccc(Cl)cc2Cl)C(C(=O)c2ccc(C)cc2)=C(C(=O)OCC)N1`?
Answer: T/C [6]: 89 % of control; T/C [7]: 98 % of control
